According to publication PMC7774954, “Interactomic affinity profiling by holdup assay: Acetylation and distal residues impact the PDZome-binding specificity of PTEN phosphatase” (PLoS ONE, 2020):
pKd: −log10 of the molar value. *1 amine or outer side, *2 acyl side, *3 side chain or, on linkers, in order; H or OH if unused. Where a SMILES comes first, the peptide text is derived from it. The star is where a group is joined. X1 = O=C(CCCC[C@@H]1SC[C@@H]2NC(=O)N[C@@H]21)NCCCOCCOCCOCCCN*; Suc = O=C(CCC(=O)[*:2])[*:1]

Key:
DFNB31-1 = molecular target: T1, DFNB31-1 (Homo sapiens, UniProt Q9P202); assay: Holdup assay, DFNB31-1; type: binding
T1 sequence (Q9P202 140-223): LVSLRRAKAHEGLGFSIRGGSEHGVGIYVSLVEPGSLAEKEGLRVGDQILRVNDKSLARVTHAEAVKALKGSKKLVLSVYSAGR

FRMPD2-1 = assay: Holdup assay, FRMPD2-1; type: binding, human
MAGI1 PDZ 2 = molecular target: T2, MAGI1 PDZ 2 (Homo sapiens, UniProt Q96QZ7); assay: Holdup assay, MAGI1-2; type: binding
T2 construct: made in house; host or cells: E. coli
T2 sequence (Q96QZ7 472-554 limits assumed): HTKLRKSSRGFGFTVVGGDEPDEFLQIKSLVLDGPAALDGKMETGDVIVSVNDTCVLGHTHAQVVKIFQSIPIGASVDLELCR
Experimental: (§1) The holdup assay was performed on a Tecan freedom Evo200 robot with 384-well plates in singlicate for the three 11-mer PTEN variants and the 13-mer PTEN peptide as described in [31, 32]. Briefly, prior to interaction assay, 2.5 μL of streptavidin resin was saturated in each well with 20 μL of biotinylated PBM peptides (42 μM) and then washed twice with an excess of free biotin, while the reference resin was incubated only with biotin. Right before the holdup experiment, the PDZ library was spiked with an internal standard of lysozyme. Then, the biotin- or PBM-saturated resin was incubated, each in a distinct well of a 384-well plate, with complete cell lysates diluted so that the concentration of the tag-PDZ present in the crude extract is adjusted at 4 μM. After a sufficient time to reach complex equilibrium (15 min.), a fast and mild filtration step is performed and the tag-PDZ concentrations were measured by capillary electrophoresis instrument (LabChip GXII, PerkinElmer, Massachusets, USA). Standard markers were used to convert migration time into molecular weight on the LabChip software and inappropriate molecular weight markers were corrected or excluded.
(§2) For filtered data, the BI was extracted with the following equation (Eq 1) that estimates the depleted fraction after superimposition of the sample and reference electropherograms: BI=Iref−Ilig/Iref (1) where Iref and Ilig are the intensities of the tag-PDZ peaks measured, for each PDZ domain/PBM peptide interaction pair, in the biotin reference and the PBM electropherograms, respectively.
BIs were transformed into dissociation constants (KD) using the following formula: KD=([PDZtot]−BI·[PDZtot])·([PBMtot]−BI·[PDZtot])/BI·[PDZtot] […] We systematically determined the KD constants for a subset of PDZ/PBM pairs by competitive FP. […] For each PBM, the average peptide concentration was calculated after outlier rejection based on the absolute distances from the median as compared to three times the standard deviation (3σ rule), with never more than 2 values rejected.

MAST3 PDZ 1 = molecular target: T3, MAST3 PDZ 1 (Homo sapiens, UniProt O60307); assay: Holdup assay, MAST3-1; type: binding; settings: for BI: MAST3-1
T3 construct: made in house; host or cells: E. coli
T3 sequence (O60307 950-1038 limits assumed): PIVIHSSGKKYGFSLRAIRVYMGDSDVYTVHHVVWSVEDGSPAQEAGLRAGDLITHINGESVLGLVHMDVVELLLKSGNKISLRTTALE
Experimental: as §1, §2
BIs were transformed into dissociation constants (KD) using the following formula: KD=([PDZtot]−BI·[PDZtot])·([PBMtot]−BI·[PDZtot])/BI·[PDZtot] (2) where [PDZtot] and [PBMtot] correspond to the total concentrations of the PDZ domain (usually around 4 μM) and the PBM peptide used during the assay. Since the PBMtot concentration in the resin during the holdup assay parameter may differ from one peptide to another and remains unknown, it is impossible to directly convert BI values into KD constants. We systematically determined the KD constants for a subset of PDZ/PBM pairs by competitive FP. […] For each PBM, the average peptide concentration was calculated after outlier rejection based on the absolute distances from the median as compared to three times the standard deviation (3σ rule), with never more than 2 values rejected.

DFNB31-2 = assay: Holdup assay, DFNB31-2; type: binding, human
GRIP1-5 = assay: Holdup assay, GRIP1-5; type: binding, human
LIMK2-1 = molecular target: T4, LIMK2-1 (Homo sapiens, UniProt P53671); assay: Holdup assay, LIMK2-1; type: binding
T4 sequence (P53671 152-239): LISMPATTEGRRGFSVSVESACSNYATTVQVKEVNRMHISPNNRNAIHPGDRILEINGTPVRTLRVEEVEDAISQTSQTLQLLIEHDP

Row | SMILES | BI (DFNB31-1) | BI (FRMPD2-1) | LogKD (FRMPD2-1) | BI (MAGI1 PDZ 2) | BI (MAST3 PDZ 1) | BI (DFNB31-2) | LogKD (DFNB31-2) | BI (GRIP1-5) | LogKD (GRIP1-5) | BI (LIMK2-1) | LogKD (LIMK2-1) | pKd (MAST3 PDZ 1) | LogKD (DFNB31-1)
1 | CC[C@H](C)[C@H](NC(=O)[C@H](CCC(N)=O)NC(=O)[C@@H](NC(=O)[C@H](Cc1c[nH]cn1)NC(=O)[C@H](CCC(N)=O)NC(=O)[C@H](CC(=O)O)NC(=O)[C@H](CCC(=O)O)NC(=O)[C@H](CC(=O)O)NC(=O)CCC(=O)NCCCOCCOCCOCCCNC(=O)CCCC[C@@H]1SC[C@@H]2NC(=O)N[C@@H]21)[C@@H](C)O)C(=O)N[C@H](C(=O)N[C@@H](CCCCN)C(=O)N[C@H](C(=O)O)C(C)C)[C@@H](C)O [PTEN_11] | 0.108 | -0.044 | 3.519 | 0.077 | 0.122 | -0.03 | 3.519 | 0.021 | 3.519 | 0.05 | 3.519 |  | 
2 | CC[C@H](C)[C@H](NC(=O)[C@H](CCC(N)=O)NC(=O)[C@@H](NC(=O)[C@H](Cc1c[nH]cn1)NC(=O)[C@H](CCC(N)=O)NC(=O)[C@H](CC(=O)O)NC(=O)[C@H](CCC(=O)O)NC(=O)[C@H](CC(=O)O)NC(=O)[C@H](Cc1ccccc1)NC(=O)[C@@H]1CCCN1C(=O)CCC(=O)NCCCOCCOCCOCCCNC(=O)CCCC[C@@H]1SC[C@@H]2NC(=O)N[C@@H]21)[C@@H](C)O)C(=O)N[C@H](C(=O)N[C@@H](CCCCN)C(=O)N[C@H](C(=O)O)C(C)C)[C@@H](C)O [PTEN_13] ({X1-Suc}-PFDEDQHTQITKV-OH) | 0.145 | -0.07 |  | -0.017 | -0.161 | 0.036 |  | -0.033 |  | 0.152 |  |  | 
3 | CC[C@H](C)[C@H](NC(=O)[C@H](CCC(N)=O)NC(=O)[C@@H](NC(=O)[C@H](Cc1c[nH]cn1)NC(=O)[C@H](CCC(N)=O)NC(=O)[C@H](CC(=O)O)NC(=O)[C@H](CCC(=O)O)NC(=O)[C@H](CC(=O)O)NC(=O)CCC(=O)NCCCOCCOCCOCCCNC(=O)CCCC[C@@H]1SC[C@@H]2NC(=O)N[C@@H]21)[C@@H](C)O)C(=O)N[C@H](C(=O)N[C@@H](CCCNC(=N)N)C(=O)N[C@H](C(=O)O)C(C)C)[C@@H](C)O [PTEN_KR] ({X1-Suc}-DEDQHTQITRV-OH) | 0.118 | -0.015 | 3.655 |  | 0.228 | -0.046 | 3.655 | 0.003 | 3.655 | -0.042 | 3.655 | 4.09 | 
4 | CC[C@H](C)[C@H](NC(=O)[C@H](CCC(N)=O)NC(=O)[C@@H](NC(=O)[C@H](Cc1c[nH]cn1)NC(=O)[C@H](CCC(N)=O)NC(=O)[C@H](CC(=O)O)NC(=O)[C@H](CCC(=O)O)NC(=O)[C@H](CC(=O)O)NC(=O)CCC(=O)NCCCOCCOCCOCCCNC(=O)CCCC[C@@H]1SC[C@@H]2NC(=O)N[C@@H]21)[C@@H](C)O)C(=O)N[C@H](C(=O)N[C@@H](CCCCNC(C)=O)C(=O)N[C@H](C(=O)O)C(C)C)[C@@H](C)O [PTEN_Ac] | 0.09 | -0.083 | 3.605 | 0.101 | 0.242 | -0.091 | 3.605 | -0.054 | 3.605 | -0.087 | 3.605 | 4.07 | 3.605
